Test results from ChEMBL document CHEMBL1157400, “Cytotoxic staurosporines from the marine ascidian Cystodytes solitus” (2008).

Assays:
Type in all cases: functional
A549 = test: Cytotoxicity against human A549 cells after 72 hrs by sulforhodamine B method; conditions: A549, 72 h
HT-29 = test: Cytotoxicity against human HT29 cells after 72 hrs by sulforhodamine B method; conditions: HT-29, 72 h
MDA-MB-231 = test: Cytotoxicity against human MDA-MB-231 cells after 72 hrs by sulforhodamine B method; conditions: MDA-MB-231, 72 h

Structure (SMILES) | GI50 (A549) | GI50 (HT-29) | GI50 (MDA-MB-231)
CN[C@@H]1C[C@H]2O[C@@](C)([C@@H]1OC)n1c3ccc(O)c(O)c3c3c4c(c5c6cc(O)ccc6n2c5c31)C(=O)NC4=O | 26.6 nM | 68.1 nM | 28.4 nM
CO[C@@H]1[C@H](N)C[C@H]2O[C@]1(C)n1c3ccc(O)c(O)c3c3c4c(c5c6ccccc6n2c5c31)C(=O)NC4=O | 17.5 nM | 90.3 nM | 32.1 nM
CN[C@@H]1C[C@H]2O[C@@](C)([C@@H]1OC)n1c3ccccc3c3c4c(c5c6ccccc6n2c5c31)C(=O)NC4 [STAUROSPORINE] | 2.4 nM | 10.9 nM | 7.1 nM
